Laboratory results published in ChEMBL document CHEMBL1132729.
Active and inactive are the calls of the source. No cut-off for these calls is given here.

Assays:
[1] = target: T1, Lipoprotein lipase (Bos taurus) (UniProt P11151); experiment: Percent inhibition of compound against Lipoprotein lipase(LPL) was evaluated; No significant inhibition
T1 sequence (whole entry): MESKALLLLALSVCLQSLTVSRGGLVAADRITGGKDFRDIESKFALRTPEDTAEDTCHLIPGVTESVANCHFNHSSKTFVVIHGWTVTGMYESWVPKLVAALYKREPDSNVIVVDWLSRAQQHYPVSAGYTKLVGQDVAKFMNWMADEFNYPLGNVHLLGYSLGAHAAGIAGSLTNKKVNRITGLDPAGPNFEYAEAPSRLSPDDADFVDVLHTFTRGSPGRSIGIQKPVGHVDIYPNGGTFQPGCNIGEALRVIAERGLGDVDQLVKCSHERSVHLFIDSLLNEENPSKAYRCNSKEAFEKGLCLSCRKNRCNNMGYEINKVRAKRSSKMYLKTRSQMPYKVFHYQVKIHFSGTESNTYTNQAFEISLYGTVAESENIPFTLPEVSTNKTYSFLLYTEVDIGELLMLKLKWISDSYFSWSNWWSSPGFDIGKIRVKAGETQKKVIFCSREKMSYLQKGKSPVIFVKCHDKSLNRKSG

[2] = target: T1, Lipoprotein lipase (Bos taurus); experiment: Percent inhibition of compound against Lipoprotein lipase(LPL) at 10 uM was evaluated
[3] = target: T1, Lipoprotein lipase (Bos taurus); experiment: Percent inhibition of compound against Lipoprotein lipase(LPL) at 3h was evaluated; conditions: concentration not given here

| Structure (SMILES) | inhibition [1] | inhibition [2] [%] | inhibition [3] [%] |
| --- | --- | --- | --- |
| CCCCCCS(=O)(=O)Oc1ccc([N+](=O)[O-])cc1 | No inhibition |  |  |
| CCCCCCCCCCCCS(=O)(=O)F | inactive |  |  |
| CCCCCCS(=O)(=O)ON1C(=O)CCC1=O | No inhibition |  |  |
| CCCCCCCCCCCCCCCCS(=O)(=O)F |  | 50 | 90 |
